Columns and labels:
[1] = system: IICR (IP3 induced calcium release) in CHO cells; experiment: Assay of IICR (IP3 induced calcium release)-inhibiting action; assay type: cell-based, Chinese hamster; conditions: CHO cells, 10 μM ATP; for inhibition at 10 µM / inhibition at 30 µM / inhibition at 100 µM: Cricetulus griseus, CHO, read-out: IICR level (percentage of inhibition)
Outline: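 CHO cell medium replaced with calcium-containing BSS; compound added 1 min later, then 10 μM ATP after a further 2 min. Percent inhibition of the ATP-evoked rise in intracellular calcium determined at each compound concentration.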

[2] = system: SOCE (store operated calcium entry) in CHO cells; experiment: Assay of SOCE (store operated calcium entry)-inhibiting action; assay type: cell-based, Chinese hamster; conditions: CHO cells, thapsigargin; for inhibition at 10 µM / inhibition at 30 µM / inhibition at 100 µM: Cricetulus griseus, CHO, read-out: SOCE level (percentage of inhibition)
Outline: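 CHO cells in calcium-free BSS received compound, then 1 μM thapsigargin 2 min later to deplete stores; after 9 min, 2 mM calcium chloride (final) added. Percent inhibition of the rise in intracellular calcium determined at various compound concentrations.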

Row | Structure (SMILES) | inhibition at 10 µM ([1]; test compound 10 μmol) [%] | inhibition at 30 µM ([1]; test compound 30 μmol) [%] | inhibition at 100 µM ([1]; test compound 100 μmol) [%] | inhibition at 10 µM ([2]; test compound 10 μmol) [%] | inhibition at 30 µM ([2]; test compound 30 μmol) [%] | inhibition at 100 µM ([2]; test compound 100 μmol) [%] | IICR level (percentage of inhibition) ([1]; test compound 10 μmol) [%] | IICR level (percentage of inhibition) ([1]; test compound 30 μmol) [%] | IICR level (percentage of inhibition) ([1]; test compound 100 μmol) [%] | SOCE level (percentage of inhibition) ([2]; test compound 10 μmol) [%] | SOCE level (percentage of inhibition) ([2]; test compound 30 μmol) [%] | SOCE level (percentage of inhibition) ([2]; test compound 100 μmol) [%]
1 | O=C(CCN1CCCC1O)c1ccc(Br)s1 (stereo not drawn) [Example 345, 2-(N-2-hydroxypyrrolidino)aminoethyl-5-bromo-2-thienylketone] | 0 | 20 | 70 | 0 | 0 | 10 |  |  |  |  |  | 
2 | O=C(CCNc1ccccc1S)c1ccc(Br)s1 [Example 347, 2-(N-2-mercaptophenyl)aminoethyl-5-bromo-2-thienylketone] | 0 | 20 | 50 | 0 | 0 | 0 |  |  |  |  |  | 
3 | O=C(CCN1CCCCC1)c1ccc(Br)s1 [Example 348, 2-piperidinoethyl-5-bromo-2-thienylketone] | 20 | 0 | 20 | 0 | 0 | 16 |  |  |  |  |  | 
4 | O=C(CCNCC(O)c1ccccc1)c1ccc(Br)s1 (stereo not drawn) [Example 349, 2-(2-hydroxy-2-phenylethyl)aminoethyl-5-bromo-2-thienylketone] | 20 | 0 | 50 | 46 | 0 | 0 |  |  |  |  |  | 
5 | O=C(CCN1CCCCC1CO)c1ccc(Br)s1 (stereo not drawn) [Example 350] | 60 | 50 | 70 | 10 | 2 | 3 |  |  |  |  |  | 
6 | O=C(CCNCCc1ccccc1)c1ccc(Br)s1 [Example 351, 2-phenethylaminoethyl-5-bromo-2-thienylketone] | 30 | 0 | 0 | 0 | 9 | 32 |  |  |  |  |  | 
7 | O=C(CCNCCCO)c1ccc(Br)s1 [Example 352, 2-(3-hydroxypropyl)aminoethyl-5-bromo-2-thienylketone] | 30 | 0 | 0 | 0 | 0 | 34 |  |  |  |  |  | 
8 | O=C(CCNC(O)c1ccccc1)c1ccc(Br)s1 (stereo not drawn) [Example 353, 2-(1-hydroxy-1-phenylmethyl)aminoethyl-5-bromo-2-thienylketone] | 60 | 0 | 20 | 0 | 0 | 7 |  |  |  |  |  | 
9 | O=C(CCNCCN(CCO)CCC(=O)c1ccc(Br)s1)c1ccc(Br)s1 [Example 354, 2-(N-5-bromothionylethylaminoethyl-N-hydroxyethyl)aminoethyl-5-bromo-2-thienylketone] | 0 | 0 | 60 | 0 | 10 | 10 |  |  |  |  |  | 
10 | O=C(CCNC(c1ccccc1)C(O)c1ccccc1)c1ccc(Br)s1 (stereo not drawn) [Example 355, 2-(2-hydroxy-1,2-diphenyl-ethyl)aminoethyl-5-bromo-2-thienylketone] | 0 | 0 | 50 | 0 | 16 | 16 |  |  |  |  |  | 
11 | O=C(CCNC(CO)Cc1ccccc1)c1ccc(Br)s1 (stereo not drawn) [Example 357, 2-(N-hydroxy-1-benzylethyl)aminoethyl-5-bromo-2-thienylketone] | 0 | 0 | 70 | 0 | 9 | 47 |  |  |  |  |  | 
12 | O=C(CCNCCO)c1ccc(Br)s1 [Example 358, 2-(N-hydroxyethyl)aminoethyl-5-bromo-2-thienylketone] |  |  |  |  |  |  | 0 | 0 | 70 | 0 | 4 | 23
13 | O=C(CCN(CCO)c1ccccc1)c1ccc(Br)s1 [Example 359, 2-(N-hydroxyethyl-N-phenyl)aminoethyl-5-bromo-2-thienylketone] | 0 | 0 | 70 | 0 | 24 | 57 |  |  |  |  |  | 
14 | CC(O)CNCCC(=O)c1ccc(Br)s1 (stereo not drawn) [Example 360, 2-(N-2-hydroxypropyl)aminoethyl-5-bromo-2-thienylketone] | 0 | 0 | 70 | 10 | 0 | 20 |  |  |  |  |  | 
15 | O=C(CCN1CCC(CCO)CC1)c1ccc(Br)s1 [Example 361, 2-(4-hydroxyethylpiperadino)ethyl-5-bromo-2-thienylketone] | 22 | 0 | 19 | 22 | 2 | 19 |  |  |  |  |  | 
16 | CCN(CO)CCC(=O)c1ccc(Br)s1 [Example 362, 2-(N-hydroxymethyl-N-ethyl)aminoethyl-5-bromo-2-thienylketone] | 0 | 0 | 70 | 11 | 13 | 23 |  |  |  |  |  | 
17 | CN1CCN(CCC(=O)c2ccc(Br)s2)CC1 [Example 363, 2-(N-methylpiperadino)ethyl-5-bromo-2-thienylketone] | 0 | 0 | 70 | 0 | 0 | 14 |  |  |  |  |  | 
18 | O=C(CCNCCc1cnc[nH]1)c1ccc(Br)s1 [Example 364, 2-(4-imidazolylethyl)aminoethyl-5-bromo-2-thienylketone] | 0 | 0 | 40 | 24 | 49 | 70 |  |  |  |  |  | 
19 | CCC(CO)(CO)NCCC(=O)c1ccc(Br)s1 [Example 365, 2-(N-1,1-bishydroxymethylpropyl)aminoethyl-5-bromo-2-thienylketone] | 0 | 0 | 70 | 0 | 0 | 10 |  |  |  |  |  | 
20 | NCCSSCCN(CCC(=O)c1ccc(Cl)s1)CCC(=O)c1ccc(Cl)s1 [Example 366, N,N-bis(2-(5-chloro-2-thiophenoyl)ethyl)cystamine] | 0 | 0 | 70 | 6 | 0 | 90 |  |  |  |  |  | 
21 | NCCSSCCN(CCC(=O)c1ccc(Br)cc1)CCC(=O)c1ccc(Br)cc1 [Example 367, N,N-bis(2-(4-bromo-benzoyl)ethyl)cystamine] | 0 | 0 | 70 | 0 | 17 | 96 |  |  |  |  |  | 
22 | CCCCN(CCC(=O)c1ccc(Br)s1)Cc1ccccc1 [Example 373, 2-(N-butyl-N-benzyl)aminoethyl-5-bromo-2-thienylketone] | 0 | 36 | 0 | 100 | 28 | 65 |  |  |  |  |  | 
23 | CCCCN(CCC(=O)c1ccc(Cl)s1)Cc1ccccc1 [Example 374, 2-(N-butyl-N-benzyl)aminoethyl-5-chloro-2-thienylketone] | 0 | 8 | 0 | 0 | 0 | 53 |  |  |  |  |  | 
24 | CCCCN(CCC(=O)c1ccc(Br)cc1)Cc1ccccc1 [Example 375, 2-(N-butyl-N-benzyl)aminoethyl-4-bromophenylketone] | 0 | 33 | 0 | 4 | 0 | 40 |  |  |  |  |  | 
25 | CCCCN(CCC(=O)c1ccncc1)Cc1ccccc1 [Example 376, 2-(N-butyl-N-benzyl)aminoethyl-4-pyridylketone] | 18 | 84 | 51 | 21 | 0 | 27 |  |  |  |  |  | 
26 | CCCCN(CCC(=O)c1ccco1)Cc1ccccc1 [Example 377, 2-(N-butyl-N-benzyl)aminoethyl-2-furylketone] | 22 | 20 | 36 | 21 | 0 | 27 |  |  |  |  |  | 
27 | CCCCN(CCC(=O)c1ccc2ccccc2c1)Cc1ccccc1 [Example 378, 2-(N-butyl-N-benzyl)aminoethyl-2-naphthylketone] | 50 | 24 | 46 | 0 | 0 | 41 |  |  |  |  |  | 
